From ChEMBL document CHEMBL1201862, “PubChem BioAssay data set” (2004) come the findings set out here.

Common to all, as to experiment: inhibition of tumour cell growth, NCI panel, 48 h
Test [1] concerns HL-60.
For test [2], the system named is A498.
Test [3] relates to HOP-92.
Test [4] concerns SF-295.
Test [5] concerns OVCAR-4.
For test [6], the system named is M14.
Test [7] deals with 786-0.
For test [8], the system named is NCI-H23.
The subject of test [9] is NCI-H460.
Test [10] relates to MDA-MB-435.
Test [11] concerns HCT-116.
Test [12] has as its system HCC 2998.
The test system of test [13] is IGROV-1.
Test [14] deals with HCT-15.
Test [15] concerns SF-539.
In test [16] the test system is PC-3.
In test [17] the test system is UO-31.
Test [18] relates to LOX IMVI.
Test [19] has as its system SR.
The test system of test [20] is Malme-3M.

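Following 48 hours of exposure in 96-well plates, responses at five concentrations were used to interpolate endpoints linearly. Here, GI50 denotes the concentration required for 50% inhibition of growth.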 Activity calls are given as the source filed them. No stated cut-off is given here; in the data, active = GI50 up to about 1.1 µM and inactive = higher.

Take `CSc1nc(O)c(C#N)c(-c2ccc(Cl)cc2)n1`: the GI50 in test [1] is 35.5 µM (inactive); in test [2], 74.6 µM (inactive); in test [3], 24.8 µM (inactive); in test [4] it was > 100 µM (inactive); in [5], > 100 µM (inactive); in test [6] it was > 100 µM (inactive). For the same compound, the GI50 in test [7] is > 100 µM (inactive); in [8] it was > 100 µM (inactive); in [9], > 100 µM (inactive); in test [10], > 100 µM (inactive); in [11] it was 72.1 µM (inactive); in test [12], > 100 µM (inactive). In addition, the GI50 in [13] is > 100 µM (inactive); in test [14], more than 100 µM; in test [15], > 100 µM (inactive); in [16], 91.4 µM (inactive); in test [17] it was 36.5 µM (inactive).

Consider `CC(C)C1(NC(=O)C2CC3c4cccc5[nH]cc(c45)CC3N(C)C2)OC2(O)C3CCCN3C(=O)C(Cc3ccccc3)N2C1=O` (stereo not given), for which the GI50 is 6.62 µM (inactive) in [1]; 18.6 µM (inactive) in test [3]; 16.7 µM (inactive) in test [4]; 53.5 µM (inactive) in test [5]; 42.7 µM (inactive) in test [6]; 36.7 µM (inactive) in [7]. Moreover, the GI50 in test [8] was 30.5 µM (inactive); in test [9], 19.2 µM (inactive); in [18], 12.1 µM (inactive); in test [19], 12.9 µM (inactive); in test [10], 19.4 µM (inactive); in test [11], 16.9 µM (inactive). Besides, the GI50 in [12] was 19 µM (inactive); in [13], 36.4 µM (inactive); in test [14], 23.6 µM; in test [15], 15.4 µM (inactive); in test [16], 5.62 µM (inactive); in test [17], 12.9 µM (inactive).

For the compound `O=C(O)Cc1ccc(-n2nnc3c(=O)[nH][nH]c(=O)c32)cc1`, the GI50 in test [1], in [3], in test [4], in [5], in [6] and in test [7] was > 100 µM (inactive) in each case. In addition, the GI50 in test [8], in test [9], in test [18], in test [19], in [10] and in [11] was > 100 µM (inactive) in each case. In addition, the GI50 in [20] is > 100 µM (inactive); in test [12] it was > 100 µM (inactive); in test [14] it was more than 100 µM; in test [16] it was > 100 µM (inactive); in [17], > 100 µM (inactive).

As for `CN(C)c1nc2oc(-c3ccccc3)c(-c3ccccc3)c2c2nnnn12`, the GI50 in [1] was 19.8 µM (inactive); in [2] it was > 100 µM (inactive); in test [3], > 100 µM (inactive); in [4], > 100 µM (inactive); in test [5] it was > 100 µM (inactive); in test [6], > 100 µM (inactive). Besides, the GI50 in test [7], in [8], in test [18], in test [19], in test [10] and in test [11] was > 100 µM (inactive) throughout. In addition, the GI50 in test [12] was > 100 µM (inactive); in [13], > 100 µM (inactive); in test [14] it was more than 100 µM; in test [15], > 100 µM (inactive); in test [17], > 100 µM (inactive).

As for `CCOC(=O)NN(C(=O)OCC)c1ccc(/N=N/c2ccc(OC)cc2)n1C`, the GI50 in test [1] was 19.2 µM (inactive); in test [2], 25.3 µM (inactive); in test [3] it was 24.8 µM (inactive); in [4], 37.4 µM (inactive); in [5] it was 36.9 µM (inactive); in test [6], 22.8 µM (inactive). The GI50 is 32.2 µM (inactive) in test [7]; 32.6 µM (inactive) in [8]; 21.5 µM (inactive) in test [18]; 22.7 µM (inactive) in [10]; 18.6 µM (inactive) in [11]; 25.2 µM (inactive) in test [20]. Further, the GI50 was 31.3 µM (inactive) in test [12]; 29 µM (inactive) in test [13]; 12.5 µM in test [14]; 18.4 µM (inactive) in test [15]; 15.3 µM (inactive) in [16]; 0.653 µM (active) in [17].

For `COC1C(O)C(C)OC(OC2C(Oc3cccc4c(O)c5c(=O)oc6ccc(C)c7c(=O)oc(c34)c5c67)OC(C)C3O[C@H](c4ccccc4)OC32)C1O` (stereo not given in full), the GI50 is 0.098 µM (active) in [1]; 0.0731 µM (active) in [2]; 1.23 µM (inactive) in [3]; 0.103 µM (active) in test [4]; 1.3 µM (inactive) in [5]; 0.851 µM (active) in [6]. Further, the GI50 in test [7] was 0.0521 µM (active); in test [9], 0.0195 µM (active); in test [20] it was 0.845 µM (active); in test [12], 0.453 µM (active); in test [13], 0.0681 µM (active); in test [14], 0.168 µM. Moreover, the values for the GI50 in test [15], in test [16] and in test [17] were 0.0746 µM (active), 0.361 µM (active) and 0.294 µM (active), respectively.

As for `Cc1c2c(c(C)n1-c1ccccc1)C(=O)N(CCSC(=N)N)C2=O`, the GI50 in test [1] was > 100 µM (inactive); in test [2], 32.4 µM (inactive); in [3], > 100 µM (inactive); in test [4], 22.6 µM (inactive); in test [5] it was 9.29 µM (inactive); in test [6] it was > 100 µM (inactive). The GI50 in test [7] is > 100 µM (inactive); in test [8], 4.85 µM (inactive); in [9], 12.3 µM (inactive); in test [10], 93.3 µM (inactive); in [11], > 100 µM (inactive); in [20], > 100 µM (inactive). Moreover, the GI50 in [12] is > 100 µM (inactive); in test [13] it was > 100 µM (inactive); in test [14], more than 100 µM; in [15] it was > 100 µM (inactive); in test [16], > 100 µM (inactive); in test [17] it was > 100 µM (inactive).

On to `O=C(c1ccccc1)c1ccc(N2C(=O)/C(=C/c3cccc(Oc4ccccc4)c3)N=C2c2ccccc2)c(N2C(=O)/C(=C/c3cccc(Oc4ccccc4)c3)N=C2c2ccccc2)c1`, for which the GI50 was 6.47 µM (inactive) in test [1]; 33.1 µM (inactive) in test [2]; 88.5 µM (inactive) in [3]; 25 µM (inactive) in [4]; 35.3 µM (inactive) in test [5]; 35.7 µM (inactive) in test [6]. The GI50 was 31.5 µM (inactive) in test [7]; 29.6 µM (inactive) in [8]; 23.9 µM (inactive) in test [9]; 32.9 µM (inactive) in test [18]; 4.72 µM (inactive) in [10]; 36.1 µM (inactive) in test [11]. The GI50 is 19.5 µM (inactive) in test [20]; 20 µM (inactive) in test [12]; 39.1 µM (inactive) in test [13]; 21.2 µM in test [14]; 26.5 µM (inactive) in [16]; 33.3 µM (inactive) in test [17].

For the compound `CCO/C(=N/S(=O)(=O)C(F)(F)F)N(C(C)C)C(C)C`, the GI50 in test [1], in test [2], in test [3], in [5], in test [6] and in test [7] was > 100 µM (inactive) in each case. The GI50 in [8], in test [9], in test [18], in [10], in test [11] and in test [20] was > 100 µM (inactive) each time. Also, the GI50 in [13] was > 100 µM (inactive); in [14], more than 100 µM; in [15] it was 47 µM (inactive); in test [16] it was > 100 µM (inactive).

Consider `CC1=C(C#N)C(=C(C#N)C#N)OC1(C)Cc1ccccc1` (stereo not given), for which the GI50 was 87.7 µM (inactive) in test [2]; 19.7 µM (inactive) in test [3]; 67.3 µM (inactive) in test [4]; 21.9 µM (inactive) in [5]; 30.8 µM (inactive) in test [6]; 41.7 µM (inactive) in [7]. The GI50 in [8] was 36.7 µM (inactive); in [18], 23.4 µM (inactive); in test [10], > 100 µM (inactive); in test [11] it was 36.7 µM (inactive); in test [12] it was 29.5 µM (inactive); in test [13], 51.3 µM (inactive). Also, the GI50 is 23.3 µM in test [14], 64.7 µM (inactive) in test [15], 36.2 µM (inactive) in test [16] and 18.7 µM (inactive) in test [17].

With `CCn1c(-c2ccccc2)nc2c1C(=O)c1ccccc1C2=O`, the GI50 in test [1] was 18 µM (inactive); in test [3], 24.2 µM (inactive); in test [4] it was 30.1 µM (inactive); in [5] it was 12.5 µM (inactive); in test [6], 15.4 µM (inactive); in test [7], 84.9 µM (inactive). Further, the GI50 in test [8] is 21.8 µM (inactive); in [9], 20 µM (inactive); in test [19] it was 22.3 µM (inactive); in test [10], 15.9 µM (inactive); in [11] it was 21.7 µM (inactive); in test [20], 8.81 µM (inactive). For the same compound, the GI50 in [12] was 18.2 µM (inactive); in test [13], 19.3 µM (inactive); in [14] it was 17.1 µM; in test [15], 32.4 µM (inactive); in test [16], 10.2 µM (inactive).

For the compound `NCCCNCCCCN1CC1`, the GI50 in test [1] is 0.601 µM (active); in test [3] it was 0.745 µM (active); in test [4] it was 20 µM (inactive); in [5], 0.259 µM (active); in test [6], 11.4 µM (inactive); in test [7], 0.713 µM (active). Also, the GI50 is 6.7 µM (inactive) in test [8]; 16.7 µM (inactive) in [9]; 0.637 µM (active) in test [18]; 3.6 µM (inactive) in test [10]; 6.92 µM (inactive) in test [11]; 4.57 µM (inactive) in test [20]. For the same compound, the GI50 in test [12] is 7.06 µM (inactive); in test [13] it was 3.84 µM (inactive); in [14], 8.41 µM; in test [15] it was 0.836 µM (active); in test [16], 5.69 µM (inactive); in test [17], 7.18 µM (inactive).
